{
  "source": "patent US20230063457A1",
  "about": "“DNA-PK INHIBITING COMPOUNDS” (Provincial Health Services Authority, priority 2019, published 2023)",
  "system": "HCT116 cells",
  "assay": "Stirred cell suspension assay, release of parent inhibitor from prodrug (HCT116)",
  "assay_type": "cell-based, human",
  "settings": "hypoxic conditions; 1% HCT116 cells by volume in media with 10% FBS at 37° C., FIG. 2",
  "description": "Stirred Cell Suspension Assay\nAll compounds tested were dissolved in DMSO at 10 mM/L and further dilutions were made in culture medium. Final DMSO concentration was <0.3% (v/v). The human FaDu and HCT116 cells (ATCC) were cultured in MEM medium and 10% fetal calf serum (PAA). Cells were routinely maintained at densities of 0.2×10e6 cells per ml and incubated at 37° C. in a humidified 5% CO2, 95% air atmosphere. Cells were passaged twice a week, splitting back to obtain the low density. At the time of experiment, cells were trypsinized, counted and suspended at a density of 1% cells/volume in glass vials containing 2 ml stirred media and gassed at different pO2. After 30 minutes, test compounds were added at 25 μM/L and 150 μl samples were removed at intervals up to 4 hours. Each sample was split to test for (1) free drug and (2) total extraction and analysed using high performance liquid chromatography to measure the release of the parent inhibitor from the hypoxia activated prodrug.",
  "data": [
    {"smiles": "CC(C)n1ncc(COc2cnc3cc(N4CCOCC4)nc(O[C@H]4CC[C@@H](n5ccnc5)CC4)c3c2)c1[N+](=O)[O-]", "note": "[Prodrug 15]", "values": [
      {"measurement": "conversion of prodrug to the respective parent compound", "result": "released the respective parent compound"}
    ]}
  ]
}
